This is an account of results in US12702673B2, “Sulfated C19 steroid hormones to treat and/or prevent proteotoxicity in protein-aggregation diseases” (U[…] DE OLAVIDE, priority 2020, dated 2026).

“Also recorded” adds a separate entry of the source. Counter-ions that a name gives are not always drawn.

Series [1] relates to GMC101 strain expressing human β-amyloid in muscle. The experiment in a line: Alzheimer's disease model: paralysis of GMC101 strain. The following applies: for paralysis with age: 20° C., monitored during adulthood. The class given is in vivo, Caenorhabditis elegans. An excerpt: Data display from six independent biological replicates, n≥215.
FIG. 4b illustrates that paralysis of GMC101 Alzheimer's disease model is ameliorate with TS and ES.
Assays performed with normal NGM plates. Data display from three independent biological replicates, n>130.
FIG. 15 illustrates that treatment with Androsterone Sulfate (AS) ameliorates the symptoms of Alzheimer's model in Caenorhabditis elegans. The strain GMC101 expresses the human b-amyloid in muscle cells and generate paralysis with age. […] Data from 5 biological replicates. Paralysis was monitored during adulthood. […] More than 200 nematodes were analyzed. Nematodes were synchronized and assayed at 20° C.

Series [2] relates to NL5901 strain expressing α-synuclein in muscle cells. The series is classed as in vivo, Caenorhabditis elegans. The following applies: 1 μg/ml.
Series [3] has as its system mammalian model with intrahippocampal administration of βA oligomers. The note with it: local administration; cited from earlier work.
In another series the test system is daf-2(e1370). The experiment in a line: Development / larval arrest at 25° C. (daf-2 interaction). The series is classed as in vivo, Caenorhabditis elegans. The note with it: for L1 arrest: daf-2(e1370) background. As to the method: FIG. 5i illustrates example of sul-2(pv17) larvae, Dauer larval arrest of daf-2(e1370) or L1 arrest of daf-2(e1370); sul-2(pv17) and daf-2(e1370); sul-2(gk187) at 25° C. Animals were grown up to L4 at 16° C., then shifted at 25° C., progeny were scored or imaged after 72 hours. Photographs were taken in a Leica scope.
Photographs were taken in a Leica scope. Arrow heads: Dauers, arrows: L1s.

In a further series the test system is C. elegans. Description: Longevity (lifespan) assay in C. elegans. The class given is in vivo, Caenorhabditis elegans. The source says:
Worms were cultivated in UV-killed E. coli.
FIGS. 13c and 13d illustrate that additional biological replicates of longevity curve with sulfated C19 steroid hormones.

Series [4] relates to APP-PS1 mice. Description: Passive avoidance test in chronic AD model. The class given is in vivo. The note with it: APP-PS1 mice older than 15 months; 3-4 weeks oral. The source says: FIG. 3p illustrates effect of oral administration with STX64 in more than 15-month-old APP-PS1 mice, and comparation with APP-PS1 and wild type mice older than 15 months in the passive avoidance test. The number of mice in each group were >5. In histological analysis, * represent significant differences between vehicle- and STX64 administrated APP-PS1 mice. In behavioral test, * represent significant differences between the short-term and long-term memory sessions (STM and LTM, respectively) and the training session in the same experimental group; and, + represent significant differences between the STM and LTM sessions between each experimental group and β-amyloid group. A symbol, p<0.05, two symbols, p<0.01, and three symbols, p<0.001.
As STX64 ameliorated neurodegeneration in C. elegans models, we tested the effect of this drug on cognitive alterations provoked by intrahippocampal βA oligomers infusion, an acute AD mammalian model (FIG. 3i). […] To evaluate the effect of STX64 oral treatment on amyloid pathology in a chronic AD mice model, we assessed the effect of 3-4 weeks of STX64 oral treatment on amyloid deposition in the […] (the cerebral cortex and the hippocampus) of >15-month-old APP-PS1 mice (FIG. 4k). […] We wondered if this histological improvement correlated with amelioration of cognitive behavioral deficit. […]

Series [5] concerns Q40 aggregates (AM141 strain). Description: Huntington model: polyglutamine (Q40) aggregates. The class given is in vivo, Caenorhabditis elegans. The note with it: Q40 background; 1 μg/ml; 5-day old worms. An excerpt: Strains AM140 and AM141 respectively.
In this model, GFP-labelled dopaminergic neurons die due to α-synuclein toxicity. […] We also tested two different strains of Alzheimer's disease (AD) in worms, where immobility is caused by expression of βA protein in muscle cells.

In series [6] the test system is wild type mice injected with β-amyloid oligomers in the hippocampus. The experiment in a line: Passive avoidance test, acute AD model (intrahippocampal β-amyloid oligomers). The class given is in vivo. The source says: FIGS. 3i and 3j illustrate that the effect of intrahippocampal and oral administration of STX64 in the passive avoidance test in wild type mice injected with β-amyloid oligomers in the hippocampus. The number of mice in each group were >5.
FIG. 3p illustrates effect of oral administration with STX64 in more than 15-month-old APP-PS1 mice, and comparation with APP-PS1 and wild type mice older than 15 months in the passive avoidance test. The number of mice in each group were >5. In histological analysis, * represent significant differences between vehicle- and STX64 administrated APP-PS1 mice. […]
As STX64 ameliorated neurodegeneration in C. elegans models, we tested the effect of this drug on cognitive alterations provoked by intrahippocampal βA oligomers infusion, an acute AD mammalian model (FIG. 3i). […] To evaluate the effect of STX64 oral treatment on amyloid pathology in a chronic AD mice model, we assessed the effect of 3-4 weeks of STX64 oral treatment on amyloid deposition in the […] (the cerebral cortex and the hippocampus) of >15-month-old APP-PS1 mice (FIG. 4k). […]

Series [7] has as its system CL2006 strain expressing human β-amyloid in muscle. The experiment in a line: Alzheimer's disease model: paralysis with age of CL2006 strain. The class given is in vivo, Caenorhabditis elegans. The source says: FIG. 12g illustrates that expression of human β-amyloid in muscle provokes paralysis with age (CL2006 strain) that is ameliorated by STX64 treatment. Log-rank (Mantel-Cox) test, for sul-2 deletion p=0.0027 and STX treatment p=0.007.

The subject of series [8] is APP-PS1 mice. Description: β-amyloid deposition in chronic AD model. The series is classed as in vivo. As to the method: FIG. 3k illustrates that representative β-amyloid-immunoreactive images assessed in the frontal cortex and the hippocampus of APP-PS1 mice older than 15 months of age after 3-4 weeks of vehicle or STX64 intake (0.005 mg/ml in drink water).
FIGS. 3l-3n illustrate quantification of percentage of β-amyloid area (c), deposition density (d) and average plaque size (e) in the frontal cortex and the hippocampus of >15 months-old APP-PS1 mice after 3-4 weeks of oral administration with STX64 or vehicle. n=4 mice per groups.
FIG. 3o illustrates temporal course of β-amyloid deposition in APP-PS1 mice and the effect of 3-4 weeks STX64 oral treatment on β-amyloid area in the frontal cortex (upper panel) and the hippocampus (lower panel). The number of microphotographs used was more than 3 in all the mice used.
As STX64 ameliorated neurodegeneration in C. elegans models, we tested the effect of this drug on cognitive alterations provoked by intrahippocampal βA oligomers infusion, an acute AD mammalian model (FIG. 3i). […] To evaluate the effect of STX64 oral treatment on amyloid pathology in a chronic AD mice model, we assessed the effect of 3-4 weeks of STX64 oral treatment on amyloid deposition in the […] (the cerebral cortex and the hippocampus) of >15-month-old APP-PS1 mice ([…]). […] We wondered if this histological improvement correlated with amelioration of cognitive behavioral deficit. For that, we compared cognition capacities in APP-PS1 mice older than 15-month-old treated with vehicle or STX64 for 3-4 weeks.

Setting [9] is: thermodependent paralysis, 1 μg/ml.
[10] abbreviates: wild type background, hormone 1 μg/ml.

As to `C[C@]12CC[C@@H](OS(=O)(=O)O)C[C@@H]1CC[C@@H]1[C@@H]2CC[C@]2(C)C(=O)CC[C@@H]12` [AS, [(3R,5S,8R,9S,10S,13S,14S)-10,13-Dimethyl-17-oxo-1,2,3,4,5,6,7,8,9,11,12,14,15,16-tetradecahydrocyclopenta[a]phenanthren-3-yl] sulfate], the paralysis with age result in series [1] (1 μg/ml) and in series [1] (5 μg/ml) was “reduce this effect” each time.

As for `C[C@]12CC[C@H](O)CC1=CC[C@@H]1[C@@H]2CC[C@]2(C)C(=O)CC[C@@H]12` [DHEA], the mobility with age entry in [2] is reported as “showed no effect; also recorded: no effect is observed”.

In the case of `CCCCCCCCCCCCCC(=O)NCCc1ccc(OS(N)(=O)=O)cc1` [DU-14], the memory loss result in [3] is “could alleviate memory loss”.

As to `C[C@]12CC[C@H]3[C@@H](CCC4=CC(=O)CC[C@@]43C)[C@@H]1CC[C@H]2OS(=O)(=O)O` [ES, N,N-diethylethanamine; [(8R,9S,10R,13S,14S,17R)-10,13-dimethyl-3-oxo-1,2,6,7,8,9,11,12,14,15,16,17-dodecahydrocyclopenta[a]phenanthren-17-yl] hydrogen sulfate], the paralysis phenotype result was “reduced” in [1] (normal NGM plates, 1 μg/ml) and “ameliorate” in series [1] (setting [9]). Also, the mobility with age entry in series [2] is recorded as “improves the mobility”. For the same compound, in the series with daf-2(e1370), the L1 arrest entry is “increase”. For the same compound, the life span entry is given as “did not further increase longevity in sul-2 mutants backgrounds; also recorded: does not further increase in sul-2(gk187)” in the series on C. elegans (sul-2(gk187) / sul-2 mutants background, hormone 1 μg/ml); “does not increase further in sul-2(pv17)” in the series on C. elegans (sul-2(pv17) background, hormone 1 μg/ml); “increases lifespan in wild type background; also recorded: increased in longevity on a wild type background; also recorded: increases life span in a wild type background” with C. elegans (setting [10]).

Take `NS(=O)(=O)Oc1ccc2c3c(c(=O)oc2c1)CCCCC3` [STX64]: the “cognitive deficiencies, passive avoidance test” value in the series with APP-PS1 mice [4] is “completely reverted cognitive deficiencies”; in series [6] (local (intrahippocampal) administration) it was “reverted the cognitive deficiencies”; in series [6] (systemic (oral) administration), “reverted the cognitive deficiencies”. Also, the paralysis phenotype entry in series [1] (setting [9]) is “delayed paralysis; also recorded: the paralysis phenotype is ameliorated”. Besides, the mobility with age result in [2] is “significantly improved mobility; also recorded: protective effect”. Also, the “number of Q40 aggregates” value in [5] is “reduced the number of aggregates; also recorded: Q40 aggregates are reduced”. Also, in the series on daf-2(e1370), the L1 arrest entry is “mainly arrests in L1”. Further, the development entry in the series with daf-2(e1370) (wild type) is listed as “does not affect development of wild type”. Further, the paralysis with age result in series [7] is on record as “delayed paralysis; also recorded: ameliorated”. The “lifespan, dependence on daf-36” value with C. elegans (daf-36 background, STX64 1 μg/ml) is “DAF-36 is required for the longevity; also recorded: necessary for the increase of longevity”. The life span entry with C. elegans (sul-2 (gk187) deletion background, STX64 1 μg/ml, UV-killed E. coli) is reported as “not in sul-2 (gk187) background; also recorded: does not further increase the longevity of sul-2 deletion mutants”; in the series on C. elegans (wild type animals, STX64 1 μg/ml, UV-killed E. coli) it was “increases lifespan in wild type animals; also recorded: an increase in longevity”; in the series with C. elegans (wild type, non-UV E. coli) it was “increases lifespan of wild type”. Also, in the series with APP-PS1 mice [8] (>15-month-old APP-PS1 mice, 3-4 weeks oral, 0.005 mg/ml in drink water, cortex and hippocampus), the βA plaque density result was “significant reduction”. Further, the βA plaque size entry in the series with APP-PS1 mice [8] (>15-month-old APP-PS1 mice, 3-4 weeks oral, cortex) is recorded as “significant reduction”. Also, in the series with APP-PS1 mice [8] (>15-month-old APP-PS1 mice, 3-4 weeks oral, cortex and hippocampus), the βA immunoreactive area entry is reported as “reduced in both tissues”. Also, in the series with APP-PS1 mice [8] (>15-month-old treated mice compared to un-treated APP-PS1 mice of 10-12 months), the “βA deposition versus normal temporal course” value was “reduces βA deposition”.

In the case of `C[C@]12CC[C@H]3[C@@H](CCC4=CC(=O)CC[C@@]43C)[C@@H]1CC[C@@H]2OS(=O)(=O)O` [TS, [(8R,9S,10R,13S,14S,17S)-10,13-dimethyl-3-oxo-1,2,6,7,8,9,11,12,14,15,16,17-dodecahydrocyclopenta[a]phenanthren-17-yl]hydrogen sulfate], the paralysis phenotype result in series [1] (normal NGM plates, 1 μg/ml) is given as “reduced”; in [1] (setting [9]) it was “ameliorate”. Besides, in series [2], the mobility with age entry is listed as “improves the mobility”. Besides, the L1 arrest result in the series on daf-2(e1370) was “increase”. Further, the life span entry in the series with C. elegans (setting [10]) is listed as “do not affect; also recorded: does not affect longevity”.

As to `C[C@]12CC[C@H]3[C@@H](CCC4=CC(=O)CC[C@@]43C)[C@@H]1CC[C@@H]2O` [testosterone], the mobility with age entry in series [2] is “showed no effect; also recorded: no effect is observed”.

With dehydroepiandrosterone sulfate [DHEAS], in series [2], the mobility with age result is “improves the mobility”. Also, in the series with daf-2(e1370), the L1 arrest result is listed as “increase”. The life span entry in the series with C. elegans (setting [10]) is listed as “do not affect; also recorded: does not affect longevity”.

Turning to pregnenolone sulfate, the mobility with age entry in [2] was “showed no effect; also recorded: no effect is observed”.
